Reference: ChEMBL document CHEMBL1201862, “PubChem BioAssay data set” (2004)
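Step 1: Grow cells in 96-well plates. Step 2: Expose to compound for 48 hours at 5 concentrations. Step 3: Interpolate endpoints linearly; if unreached, use highest concentration. The concentration for 50% growth inhibition is given as GI50.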 Activity calls are given as the source filed them. Cut-off read from the data, not from the text of the source: active = GI50 up to about 1.1 µM and inactive = higher.

Columns and labels:
Assay in all cases: growth of human tumour cells (NCI), 48 h
KM12 = system: KM12
SW-620 = system: SW-620
RPMI-8226 = system: RPMI-8226
MOLT-4 = system: MOLT-4
A549 = system: A549
HCT-116 = system: HCT-116
SK-MEL-2 = system: SK-MEL-2
HOP-62 = system: HOP-62
SF-539 = system: SF-539
HOP-92 = system: HOP-92
A498 = system: A498
NCI-H23 = system: NCI-H23
OVCAR-3 = system: OVCAR-3
DU-145 = system: DU-145
MDA-MB-231 = system: MDA-MB-231
RXF 393 = system: RXF 393
ACHN = system: ACHN
UACC-257 = system: UACC-257
SF-268 = system: SF-268
OVCAR-5 = system: OVCAR-5

SMILES | GI50 (KM12) | GI50 (SW-620) | GI50 (RPMI-8226) | GI50 (MOLT-4) | GI50 (A549) | GI50 (HCT-116) | GI50 (SK-MEL-2) | GI50 (HOP-62) | GI50 (SF-539) | GI50 (HOP-92) | GI50 (A498) | GI50 (NCI-H23) | GI50 (OVCAR-3) | GI50 (DU-145) | GI50 (MDA-MB-231) | GI50 (RXF 393) | GI50 (ACHN) | GI50 (UACC-257) | GI50 (SF-268) | GI50 (OVCAR-5)
Cn1c(=O)c2c(O)cc(N)nc2n(C)c1=O | > 100 µM (inactive) | > 100 µM (inactive) | > 100 µM (inactive) | > 100 µM (inactive) | > 100 µM (inactive) | > 100 µM (inactive) | > 100 µM (inactive) | > 100 µM (inactive) | > 100 µM (inactive) | 67.3 µM (inactive) | > 100 µM (inactive) | > 100 µM (inactive) | > 100 µM (inactive) | > 100 µM (inactive) | > 100 µM (inactive) | > 100 µM (inactive) | > 100 µM (inactive) | > 100 µM (inactive) | > 100 µM (inactive) | > 100 µM (inactive)
Nc1nc(N)c(NC(=O)CCCO)c(=O)[nH]1 | > 100 µM (inactive) | > 100 µM (inactive) | > 100 µM (inactive) | > 100 µM (inactive) | > 100 µM (inactive) | > 100 µM (inactive) | > 100 µM (inactive) | > 100 µM (inactive) | > 100 µM (inactive) | > 100 µM (inactive) | > 100 µM (inactive) | > 100 µM (inactive) | > 100 µM (inactive) | > 100 µM (inactive) | > 100 µM (inactive) | > 100 µM (inactive) | > 100 µM (inactive) | > 100 µM (inactive) | > 100 µM (inactive) | > 100 µM (inactive)
COC(=O)/C=C1\C(=O)C=C2[C@@H]3C[C@H]4C[C@H](CC[C@@]4(C)N21)C3(C)NC(C)=O (stereo not given in full) | 16 µM (inactive) | 2.8 µM (inactive) | 4.06 µM (inactive) | 3.33 µM (inactive) | 23.6 µM (inactive) | 8.97 µM (inactive) | 18.4 µM (inactive) | 20.7 µM (inactive) | 3.33 µM (inactive) | 18 µM (inactive) | 19 µM (inactive) | 23.7 µM (inactive) | 11.8 µM (inactive) | 10.7 µM (inactive) | 26 µM (inactive) | 4.51 µM (inactive) | 16 µM (inactive) | 15.6 µM (inactive) | 6.68 µM (inactive) | 18.1 µM (inactive)
Oc1ccc(Br)cc1/C=N/c1cccc(C(F)(F)F)c1 | 36.6 µM (inactive) | 24 µM (inactive) | 28.1 µM (inactive) | 23.1 µM (inactive) | > 100 µM (inactive) | 9.12 µM (inactive) | 19.5 µM (inactive) | 49.5 µM (inactive) | 20.8 µM (inactive) | 35.2 µM (inactive) | > 100 µM (inactive) | 37.2 µM (inactive) | 37 µM (inactive) | 36.8 µM (inactive) | 23.4 µM (inactive) | > 100 µM (inactive) | > 100 µM (inactive) | 35.6 µM (inactive) | 8.69 µM (inactive) | > 100 µM (inactive)
C=C1C(=O)O[C@H]2[C@H]3O[C@@H](C[C@@H]12)[C@@]1(C)CC[C@H](O1)C(C)=CCC[C@H]3C | 1.8 µM (inactive) | 1.26 µM (inactive) | 0.513 µM (active) | 1.26 µM (inactive) | 2.25 µM (inactive) | 1.45 µM (inactive) | 1.93 µM (inactive) | 6.27 µM (inactive) | 1.55 µM (inactive) | 1.55 µM (inactive) | 1.63 µM (inactive) | 1.53 µM (inactive) | 1.37 µM (inactive) | 1.49 µM (inactive) | 1.62 µM (inactive) | 1.48 µM (inactive) | 1.55 µM (inactive) | 1.76 µM (inactive) | 1.45 µM (inactive) | 3.09 µM (inactive)
